Test results reported in patent US6555134B1, “Synergistic mixtures of garlic and lycopene for preventing LDL oxidation” (Lycored Natural Products Industries Ltd., priority 1998, dated 2003).
Read-outs that look alike come from different tables or passages of the source. Marks after values point to notes of the source that are not given here.

Tests used:
[1] = test system: blood lymphocytes; conditions: NO2 radical damage; cited from earlier work
[2] = test system: LDL; experiment: copper ions-induced LDL oxidation (TBARS, lipids); format: biochemical, human; conditions: Experiment 1; lycopene 5 μg/ml
Protocol: LDL was separated from human plasma by discontinuous density gradient ultracentrifugation and dialyzed against saline: EDTA (1 mM). Before oxidation LDL was diluted in PBS to 100 ug protein/ml, and dialyzed overnight against PBS at 4° C. LDL was oxidized by a metal ion dependent mechanism, by incubation for 24 hours at 37° C. with 5 uM CuSO4 freshly prepared as well as by determination of the thiobarbituric acid reactive substance (TBARS). Lycopene, as well as tomato oleoresin containing 5% lycopene, were dissolved in tetrahydrofuran (THF), 0.5 mg/ml stock solution for pure lycopene, and 10 mg/ml stock solution for the oleoresin. Garlic powder was extracted with water, dried, and resolubilized in water at a concentration of 0.25 mg of allicin equivalentsml for a stock solution. The synergistic effects of a combination of garlic and lycopene on copper ions-induced LDL oxidation was studied. Details are shown in Table 1, affording the individual components of the Abbott Equation used to calculate synergism as follows: [formula] where A=Percent Control of garlic alone B=Percent Control of Lycopene alone where IF=Actual control in Percent IE=Expected control in Percent Following the method of Experiment 1, the synergistic effect of a combination of garlic and lycopene as in Experiment 1; but using tomato oleoresin was run.

[3] = test system: Cultured rat hepatocytes; conditions: cited from earlier work
[4] = biological target: T1, fatty acid synthetase (Rattus norvegicus, UniProt P12785); conditions: at very high concentration; cited from earlier work
T1 construct: Cultured rat hepatocytes; host or cells: primary rat hepatocyte cultures
T1 sequence (P12785 whole entry): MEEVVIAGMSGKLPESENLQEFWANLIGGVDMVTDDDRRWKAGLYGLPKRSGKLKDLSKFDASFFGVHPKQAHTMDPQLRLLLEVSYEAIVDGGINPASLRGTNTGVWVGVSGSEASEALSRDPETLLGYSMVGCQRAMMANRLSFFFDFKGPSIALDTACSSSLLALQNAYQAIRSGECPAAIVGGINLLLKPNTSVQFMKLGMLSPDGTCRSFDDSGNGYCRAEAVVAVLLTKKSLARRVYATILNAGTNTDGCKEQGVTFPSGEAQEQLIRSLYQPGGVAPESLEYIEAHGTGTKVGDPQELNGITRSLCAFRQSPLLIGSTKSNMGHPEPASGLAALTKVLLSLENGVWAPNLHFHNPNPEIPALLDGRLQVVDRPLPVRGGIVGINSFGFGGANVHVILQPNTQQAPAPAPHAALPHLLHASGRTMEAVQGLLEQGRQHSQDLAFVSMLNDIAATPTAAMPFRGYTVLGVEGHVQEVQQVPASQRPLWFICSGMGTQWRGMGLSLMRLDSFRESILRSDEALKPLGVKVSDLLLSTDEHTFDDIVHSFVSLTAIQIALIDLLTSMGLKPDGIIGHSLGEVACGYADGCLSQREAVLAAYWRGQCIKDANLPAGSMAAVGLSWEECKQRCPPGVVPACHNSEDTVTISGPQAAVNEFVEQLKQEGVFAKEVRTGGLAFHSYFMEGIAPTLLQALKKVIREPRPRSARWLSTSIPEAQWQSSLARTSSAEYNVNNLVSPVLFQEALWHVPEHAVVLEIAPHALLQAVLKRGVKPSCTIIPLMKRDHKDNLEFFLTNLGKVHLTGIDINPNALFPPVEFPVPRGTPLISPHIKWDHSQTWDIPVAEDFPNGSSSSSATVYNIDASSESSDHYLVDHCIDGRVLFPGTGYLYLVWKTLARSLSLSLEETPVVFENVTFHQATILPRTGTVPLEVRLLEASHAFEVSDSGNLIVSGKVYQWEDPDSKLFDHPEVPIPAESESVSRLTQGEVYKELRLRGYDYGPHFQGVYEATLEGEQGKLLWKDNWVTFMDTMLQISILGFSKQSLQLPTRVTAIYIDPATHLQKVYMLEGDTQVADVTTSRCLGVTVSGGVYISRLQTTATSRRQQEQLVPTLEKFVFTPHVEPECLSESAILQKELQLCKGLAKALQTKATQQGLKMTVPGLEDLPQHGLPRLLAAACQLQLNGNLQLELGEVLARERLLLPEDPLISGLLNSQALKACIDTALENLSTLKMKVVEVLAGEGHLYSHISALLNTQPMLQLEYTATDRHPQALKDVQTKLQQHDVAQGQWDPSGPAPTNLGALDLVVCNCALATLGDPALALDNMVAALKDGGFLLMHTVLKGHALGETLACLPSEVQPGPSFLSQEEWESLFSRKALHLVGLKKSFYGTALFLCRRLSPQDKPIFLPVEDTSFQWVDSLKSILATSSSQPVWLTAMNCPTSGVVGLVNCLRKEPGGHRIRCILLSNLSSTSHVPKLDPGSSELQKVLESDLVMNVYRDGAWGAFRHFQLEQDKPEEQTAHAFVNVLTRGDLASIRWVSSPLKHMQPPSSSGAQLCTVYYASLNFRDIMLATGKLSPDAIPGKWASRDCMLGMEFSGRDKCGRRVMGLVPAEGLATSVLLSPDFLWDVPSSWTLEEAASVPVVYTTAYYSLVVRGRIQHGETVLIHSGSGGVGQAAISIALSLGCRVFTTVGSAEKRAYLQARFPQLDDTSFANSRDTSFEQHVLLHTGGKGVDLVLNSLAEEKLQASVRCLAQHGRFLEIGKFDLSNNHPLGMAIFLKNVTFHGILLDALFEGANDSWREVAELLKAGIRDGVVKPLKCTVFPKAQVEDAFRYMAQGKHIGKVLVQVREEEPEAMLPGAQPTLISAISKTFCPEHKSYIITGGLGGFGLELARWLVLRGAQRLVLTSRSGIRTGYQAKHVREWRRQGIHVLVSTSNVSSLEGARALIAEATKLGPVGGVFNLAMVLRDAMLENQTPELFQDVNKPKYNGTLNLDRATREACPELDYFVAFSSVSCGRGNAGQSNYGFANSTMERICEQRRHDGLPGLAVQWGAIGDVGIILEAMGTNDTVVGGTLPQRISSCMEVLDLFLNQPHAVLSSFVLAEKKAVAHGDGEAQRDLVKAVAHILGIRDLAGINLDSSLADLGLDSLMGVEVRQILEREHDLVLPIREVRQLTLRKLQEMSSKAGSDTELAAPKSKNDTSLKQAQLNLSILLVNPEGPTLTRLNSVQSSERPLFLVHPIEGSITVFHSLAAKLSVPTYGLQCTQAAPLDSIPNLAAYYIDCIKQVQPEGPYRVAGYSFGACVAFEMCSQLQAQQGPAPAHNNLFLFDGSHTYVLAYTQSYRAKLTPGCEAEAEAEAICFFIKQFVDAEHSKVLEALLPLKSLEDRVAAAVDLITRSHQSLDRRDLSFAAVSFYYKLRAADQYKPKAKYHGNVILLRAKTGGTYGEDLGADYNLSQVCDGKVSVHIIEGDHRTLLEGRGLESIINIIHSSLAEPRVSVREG

CC(C)=CCC/C(C)=C/C=C/C(C)=C/C=C/C(C)=C/C=C/C=C(C)/C=C/C=C(C)/C=C/C=C(\C)CCC=C(C)C [Lycopene]
antioxidant effectiveness relative to β-carotene [1]: at least twice as effective | B = Percent Control of Lycopene alone [2]: 18^b Percent

CC[C@H](C)C(=O)O[C@H]1CCC=C2C=C[C@H](C)[C@H](CC[C@@H]3C[C@@H](O)CC(=O)O3)[C@H]21 [Mevastatin]
inhibition of cholesterol biosynthesis ([3]; 24 h incubation, radiolabeled acetate): 90%

C=CCS[S+]([O-])CC=C (centres unmarked) [allicin]
inhibition of fatty acid synthetase [4]: inhibited | inhibition of cholesterol biosynthesis ([3]; concentration corresponding to its content in the extracts, before or after incubation with alliinase): does not exert any inhibition
